Measured values: patent US7201899B2, “Materials and methods for management of hyperacute rejection in human xenotransplantation” (BresaGen Limited, priority 1994, dated 2007)
“Also recorded” adds a separate entry of the source.

Test system: rat heart
Assay: Langendorf isolated perfused ex vivo heart model
Conditions: sugar 10 mM, human plasma to 13%
Experimental: A. Preparation and Storage of Human Plasma • 1. Centrifuge fresh human blood at 3000 rpm, 10 min., 4° C. to remove red blood cells (RBC's) • 2. Remove the plasma • 3. Centrifuge the plasma at 10,000 rpm, 10 min. 4° C. to remove any remaining cells; decant the plasma • 4. Add 2.5 ml of 0.1M EDTA pH 7.30 for every 50 ml of plasma • 5. Store 50 ml aliquots at −70° C. • 6. For heat-inactivated plasma, heat at 56° C. for 60 min., then centrifuge at 2,500 rpm for 10 min.
Plasma prepared from different blood packs is thawed at 37° C., pooled and filtered (100 μm steel mesh, 8.0 μm and 4.5 μm Millipore filters, sequentially). Cacl2 is added at 0.58 mg/ml plasma, and the plasma kept on ice until ready for perfusion.
1. Anesthetize rats with Nembutal (1 μl sodium pentobarbitone (60 mg/ml)/g body weight) and mice with ether.
2. Surgically expose the heart and inject heparin (Porcine Mucous, 10,000 U/ml) into the femoral vein (rats: 0.3 ml injected).
3. Remove heart and place in ice-cold Krebs-Henseleit buffer containing heparin (0.2 ml/50 ml buffer. • Krebs-Henseleit buffer: • 119 mM NaCl • 25 mM NaHCO3 • 4.6 mM KCl • 1.2 mM MgSO4.7H2O • 1.3 mM CaCl2.2H2O • 1.2 mM KH2PO4 • 11 mM glucose • 0.25% (v/v) BSA • Adjust to pH 7.4; store at 4° C.
4. Connect aorta to the canula of the Langendorf perfusion apparatus and tie firmly. The apparatus was assembled by the present inventors according to experimental requirements of the Langendorf heart model as described in Doring & Dehnerrt, The Isolated Perfused Heart According to Langendorf, Bionesstechnik-Verlag March GmbH, D7806, West Germany.
5. Perfuse with Krebs-Henseleit buffer (made fresh each day), which is gassed continuously with carbogen (95% O2, 5% CO2) at a pressure of 100 mmHg, at 37° C.
6. Attach a hook, connected to a transducer (Physiograph MK-111-S, Narco Bio-Systems) to the apex of the heart.
7. Perfuse heart for 20 min. with Krebs-Henseleit buffer to enable heart to stabilize (reservoir volume: 270 ml).
8. […]

Compound | cardiac function of rat heart perfused with human plasma plus sugar | cardiac function of rat heart perfused with human plasma plus sugar (listed as lactose)
OC[C@H]1O[C@@H](O[C@H]2[C@H](O)[C@@H](O)[C@@H](O)O[C@@H]2CO)[C@H](O)[C@@H](O)[C@H]1O [Lactose, 4-O-β-D.galactopyranosyl-α-D-glucose] | does-not prolong heart survival | the heart essentially stopped beating within minutes. The same result was obtained
O=C[C@H](O)[C@@H](O)[C@H](O)[C@H](O)CO[C@H]1O[C@H](CO)[C@H](O)[C@H](O)[C@H]1O [Melibiose, 6-O-α-D-galactopyranosyl-D-glucose] | the heart was able to maintain a strong beat; also recorded: prolongs heart survival and output | –
